Measured values reported in patent publication US20250353841A1 (BIOGEN MA INC., priority 2022, published 2025).

These compounds were tested on mutant Huntington (HTT) protein (assay: HTT Mutant HTRF iPSC assay (mHTT protein lowering)). Conditions: human iPSC derived from a HTT patient with a poly-Q49 mutation.
Assay type: cell-based

SMILES	IC50
Cc1cn2nc(-c3cc(F)c4nc(N5CCC6(CCN(C)CC6)C5)oc4c3)cc(C(F)(F)F)c2n1 [Compound 520, 4-fluoro-6-(2-methyl-8-(trifluoromethyl)imidazo [1,2-b]pyridazin-6-yl)-2-(8-methyl-2,8-diazaspiro[4.5]decan-2-yl)benzo[d]oxazole]	< 100 nM
Cc1cn2nc(-c3cc(Cl)c4nc(C5CCNCC5)cn4c3)cc(C)c2n1 [Compound 556, 6-(8-chloro-2-(piperidin-4-yl)imidazo[1,2-a]pyridin-6-yl)-2,8-dimethylimidazo[1,2-b]pyridazine]	100 to 1000 nM
Fc1cc(-c2ccn3nccc3c2)cn2cc(C3CCNCC3)nc12 [Compound 34, 8-fluoro-2-(piperidin-4-yl)-6-(pyrazolo[1,5-a]pyridin-5-yl)imidazo[1,2-a]pyridine]	1000 to 9000 nM
Cn1cc2cc(-c3cc(F)c4nc(CC5CCCNC5)cn4c3)cc(F)c2n1 (centres unmarked) [Compound 14, 7-fluoro-5-(8-fluoro-2-(piperidin-3-ylmethyl)imidazo[1,2-a]pyridin-6-yl)-2-methyl-2H-indazole]	100 to 1000 nM
Cc1cn2cc(-c3cc(F)c4nn(C5CCNCC5)cc4c3)cc(F)c2n1 [Compound 136, 7-fluoro-5-(8-fluoro-2-methylimidazo[1,2-a]pyridin-6-yl)-2-(piperidin-4-yl)-2H-indazole]	100 to 1000 nM
Cc1cn2nc(-c3cc(F)c4nc(NC(=O)C5CC(CN(C)C)C5)cn4c3)cc(C)c2n1 (centres unmarked) [Compound 251, 3-((dimethylamino)methyl)-N-(6-(2,8-dimethylimidazo[1,2-b]pyridazin-6-yl)-8-fluoroimidazo[1,2-a]pyridin-2-yl)cyclobutane-1-carboxamide]	100 to 1000 nM
COc1cc(-c2cc(C(F)F)c3nc(C)cn3n2)cn2cc([C@H]3[C@@H]4CN(C)C[C@@H]43)nc12 [Compound 540, 8-(difluoromethyl)-6-[8-methoxy-2-[3-methyl-3-azabicyclo[3.1.0]hexan-6-yl]imidazo[1,2-a]pyridin-6-yl]-2-methyl-imidazo[1,2-b]pyridazine]	< 100 nM
CCc1cc(-c2cc(F)c3nc(C4CCNCC4)cn3c2)nn2cc(C)nc12 [Compound 197, 8-ethyl-6-(8-fluoro-2-(piperidin-4-yl)imidazo[1,2-a]pyridin-6-yl)-2-methylimidazo[1,2-b]pyridazine]	< 100 nM
Cc1cn2nc(-c3cc(F)c4nc(NC(=O)C5CCCNC5)nn4c3)cc(C)c2n1 (single isomer, unassigned) [Compound 315]	100 to 1000 nM
Cc1cn2nc(-c3cc(F)c4nn(C5CC6(CNC6)C5)nc4c3)cc(C)c2n1 [Compound 385, 6-(2,8-dimethylimidazo[1,2-b]pyridazin-6-yl)-4-fluoro-2-(2-azaspiro[3.3]heptan-6-yl)-2H-benzo[d][1,2,3]triazole]	100 to 1000 nM
Cn1cc2cc(-c3cc(F)c4nc(C5CCNCC5)cn4c3)cc(C#N)c2n1 [Compound 85, 5-(8-fluoro-2-(piperidin-4-yl)imidazo[1,2-a]pyridin-6-yl)-2-methyl-2H-indazole-7-carbonitrile]	100 to 1000 nM
Cc1cc(-c2cc(F)c3nc(C4CCNCC4)nn3c2)cc2cn(C)nc12 [Compound 432, 6-(2,7-dimethyl-2H-indazol-5-yl)-8-fluoro-2-(piperidin-4-yl)-[1,2,4]triazolo[1,5-a]pyridine]	100 to 1000 nM
COCCN1CCC(Nc2nc3c(F)cc(-c4cc(C)c5nc(C)cn5n4)cc3o2)CC1 [Compound 480, 6-(2,8-dimethylimidazo[1,2-b]pyridazin-6-yl)-4-fluoro-N-(1-(2-methoxyethyl)piperidin-4-yl)benzo[d]oxazol-2-amine]	< 100 nM
COc1cc(-c2cc(C)c3nc(C)cn3n2)cn2cc([C@H]3[C@@H]4CN(C)C[C@@H]43)nc12 [Compound 539, 6-[8-methoxy-2-[(1S,5R)-3-methyl-3-azabicyclo[3.1.0]hexan-6-yl]imidazo[1,2-a]pyridin-6-yl]-2,8-dimethyl-imidazo[1,2-b]pyridazine]	< 100 nM
Fc1cc(F)c2nc(-c3cc(F)c4nc(C5CCNCC5)cn4c3)oc2c1 [Compound 124, 4,6-difluoro-2-(8-fluoro-2-(piperidin-4-yl)imidazo[1,2-a]pyridin-6-yl)benzo[d]oxazole]	1000 to 9000 nM
COc1cc(-c2cc(F)c3nn(C4CCNCC4)nc3c2)nn2nc(C)nc12 [Compound 392, 6-(7-fluoro-2-(piperidin-4-yl)-2H-benzo[d][1,2,3]triazol-5-yl)-8-methoxy-2-methyl-[1,2,4]triazolo[1,5-b]pyridazine]	100 to 1000 nM
CN[C@H]1CC[C@H](c2cn3cc(-c4cc(F)c5nn(C)cc5c4)cc(F)c3n2)CC1 [Compound 170, (1r,4r)-4-(8-fluoro-6-(7-fluoro-2-methyl-2H-indazol-5-yl)imidazo[1,2-a]pyridin-2-yl)-N-methylcyclohexan-1-amine]	< 100 nM
Cc1cn2nc(-c3cc(F)c4nc(C(=O)NCC5CCCN5C)cn4c3)cc(C)c2n1 (centres unmarked) [Compound 334, 6-(2,8-dimethylimidazo[1,2-b]pyridazin-6-yl)-8-fluoro-N-((1-methylpyrrolidin-2-yl)methyl)imidazo[1,2-a]pyridine-2-carboxamide]	100 to 1000 nM
Cc1cn2cc(-c3cc(F)c4oc(N(C)CCN5CCOCC5)nc4c3)cc(F)c2n1 [Compound 532, 7-fluoro-5-(8-fluoro-2-methylimidazo[1,2-a]pyridin-6-yl)-N-methyl-N-(2-morpholinoethyl)benzo [d]oxazol-2-amine]	1000 to 9000 nM
Fc1cc(-c2ncc3cccn3n2)cn2cc(C3CCNCC3)nc12 [Compound 198, 2-(8-fluoro-2-(piperidin-4-yl)imidazo[1,2-a]pyridin-6-yl)pyrrolo[2,1-f][1,2,4]triazine]	100 to 1000 nM
Cc1cn2nc(-c3cc(F)c4nc(N5CCC6(CCN(C)C6)C5)oc4c3)cc(C)c2n1 (centres unmarked) [Compound 501, 6-(2,8-dimethylimidazo[1,2-b]pyridazin-6-yl)-4-fluoro-2-(7-methyl-2,7-diazaspiro[4.4]nonan-2-yl)benzo[d]oxazole]	100 to 1000 nM
CN1C(=O)COc2cc(-c3cc(F)c4nc(C5CCNCC5)cn4c3)cnc21 [Compound 73, 7-(8-fluoro-2-(piperidin-4-yl)imidazo[1,2-a]pyridin-6-yl)-4-methyl-2H-pyrido[3,2-b][1,4]oxazin-3(4H)-one]	1000 to 9000 nM
CCN1CCC(c2cn3cc(-c4cc(C)c5nn(C)cc5n4)cc(F)c3n2)CC1 [Compound 173, 5-(2-(1-ethylpiperidin-4-yl)-8-fluoroimidazo[1,2-a]pyridin-6-yl)-2,7-dimethyl-2H-pyrazolo[4,3-b]pyridine]	100 to 1000 nM
COc1cc(-c2cc(F)c3nc(C4CCNCC4)cn3c2)cn2cc(C)nc12 [Compound 89, 8-fluoro-8′-methoxy-2′-methyl-2-(piperidin-4-yl)-6,6′-biimidazo[1,2-a]pyridine]	100 to 1000 nM
COc1cc(-c2cc(F)c3nc(C4CCN(C)CC4)cn3c2)nn2nc(C)nc12 [Compound 225, 6-(8-fluoro-2-(1-methylpiperidin-4-yl)imidazo[1,2-a]pyridin-6-yl)-8-methoxy-2-methyl-[1,2,4]triazolo[1,5-b]pyridazine]	< 100 nM
CCN1CCC(N(C)c2nc3c(F)cc(-c4cc(C)c5nc(C)cn5n4)cc3o2)CC1C (centres unmarked) [Compound 503, 6-(2,8-dimethylimidazo[1,2-b]pyridazin-6-yl)-N-(1-ethyl-2-methylpiperidin-4-yl)-4-fluoro-N-methylbenzo[d]oxazol-2-amine]	< 100 nM
